Test results from article PMC10150366, “Discovery of an In Vivo Chemical Probe for BCL6 Inhibition by Optimization of Tricyclic Quinolinones” (Journal of Medicinal Chemistry, 2023).
Converted amounts (≈) assume the structure as drawn. “And” between values parts separate entries of the source, which are not always exact repeats. Equal values may be shown once. Read-outs that look alike come from different tables or passages of the source.

How the values were obtained:
human BCL6 BTB domain = human BCL6 BTB domain (Homo sapiens, UniProt P41182); experiment: BCL6 TR-FRET assay; assay type: binding; settings: for BCL6 TR-FRET pIC50 mean / IC90: Table S1; for IC90: read-out: BCL6 TR-FRET IC90 Geometric Mean
Procedure: 1. Supplementary experimental: protein production, purification and crystallography 1.1 BCL6 constructs used for assays and crystallography […]
cleavage site. For the TR-FRET assay, the Trx-6His-HRV3C-BCL6 protein construct was used without cleaving the tag, as a 6His was needed to bind to the anti-6His-Terbium antibody. […]
For both plasmid constructs described above, transformed BL21-AI E. coli cells were grown in LB media […]
Expression was carried out at 18 °C for 18 hours. Cells were harvested by centrifugation (5500 g for 30 minutes at 4 °C) and stored at -80 °C.
Cells were re-suspended in a buffer composed of 20 mM Tris pH 8, 250 mM NaCl, 1 mM MgCl2, 0.5 mM […]
lysed by sonication followed by centrifugation at 21,000 g for 45 minutes at 4 °C. […]
ResourceQ and gel filtration using a HiLoad 26/60 Superdex75 column in a buffer containing 20 mM HEPES […]
The final protein was assessed for purity and molar mass by SDS-PAGE and high-resolution mass spectrometry, respectively.
For the uncleaved Trx-6His-HRV3C-BCL6 protein construct to be used in TR-FRET, the protein was directly eluted from the HisTrap FF column without HRV-3C treatment, and submitted to Superdex75 gel filtration […]
Test compounds in DMSO or DMSO alone […]
concentration in 0.7% v/v DMSO final. […]

[1] = Microsomal clearance, mouse liver microsomes
[2] = logD7.4 assay (Chrom log D method); assay type: physicochemical
Procedure: Calibration, validation and in-house compounds were prepared at 1mM in 10% DMSO / 90% Trizma solution (100mM Trizma in 75/25 methanol/water). 3 µL standard injections (with needle wash) of all calibration, validation and in-house samples were made onto a Phenomenex Luna C8 column (3µm, 100 x 4.6 mm, 100A, Phenomenex, Torrence, USA). Chromatographic separation at 30°C was carried out using
2 mL/min. The gradient was held at 0:100 water:organic for 0.8 minutes, then returned to the starting conditions of 95:5 water:organic for 0.2 minutes. The column was re-equilibrated for 5 minutes at the
starting conditions prior to the next injection.
Raw data was processed using Agilent Chemstation Rev.C.01.04.

[3] = NMR aqueous solubility assay; settings: HEPES buffer, aqueous with cosolvent or surfactant or cyclodextrin
Procedure: Supplementary experimental: physicochemical assays
0.5 mM TCEP, 10% D2O) was pipetted into the same well and mixed by up-down pipetting 3 times to create a 0.5 mM solution or suspension containing 5% DMSO. It was then separated by centrifugation (1000 rpm
The plate was then sealed and incubated at room temperature for 20 hours,
165 µL of the supernatant was transferred to a 3 mm NMR tube (Bruker, Part No. Z112272) using liquid handler SamplePro Tube SJ S (Bruker). The concentration of the solubilized compound in solubility sample
PBS (pH 7.4) with 1% DMSO-d6).
The detail of the NMR method is as following: NMR data was collected on a Bruker Avance Neo 600 spectrometer equipped with a 5 mm TCI-CryoProbe.
The sweep width was 6.2 ppm with O1P set to 8.8 ppm, and the FID contained 16k time-domain data points. Relaxation delay was set to 20 sec. Water signal was suppressed.

[4] = tested on: Caco-2 human colon carcinoma cell line; settings: pH 7.4
Procedure: Caco-2 apparent permeability (Papp) was determined in the Caco-2 human colon carcinoma cell line. Cells
were maintained in DMEM with 10% fetal bovine serum, penicillin, and streptomycin in a humidified
Cells were then plated onto a cell culture assembly plate
(Millipore, UK), and monolayer confluency was tested using a TEER electrode prior to the assay. Media
specified), 1% DMSO) in the appropriate apical and basal donor wells. HBSS buffer alone was placed in
acceptor wells. The Caco-2 plate was incubated for 2 h at 37 °C. Samples from the apical and basolateral
chambers were analyzed using a Waters (Milford, MA, US) TQ-S LC-MS/MS system.
Apparent permeability (Papp) was determined as follows:
𝐏𝐚𝐩𝐩 = 𝐀 (𝐜𝐦𝟐) × 𝐂 (𝛍𝐌) × 𝐑𝐚𝐭𝐞 𝐨𝐟 𝐃𝐢𝐟𝐟𝐮𝐬𝐢𝐨𝐧 (𝛍𝐌.𝐬𝐞𝐜 )
Where Vr = volume of receptical
A = surface area of monolayer
C0 = Initial compound concentration in donor

[5] = molecular target: T1, BCL6-SMRT (NCOR2) corepressor protein-protein interaction (Homo sapiens, UniProt P41182); experiment: NanoBRET cellular assay (HEK293T); assay type: cell-based; settings: for IC90: read-out: BCL6 NanoBRET IC90 individual replicates
T1 construct: DNA encoding full length BCL6 and SMRT; expressed in transfected cells; host or cells: HEK293T
Procedure: Test compounds in DMSO or DMSO alone
concentration in 0.7% v/v DMSO final.
(also called NCOR2) corepressor protein-protein interaction. DNA encoding full length BCL6 and SMRT
fusion proteins BCL6-nanoLuc and SMRT-HaloTag, respectively. HEK293T cells were plated […] in T75
At the time of assay, compounds
dispensing (Labcyte Inc.). Frozen transfected HEK293T cells were thawed, centrifuged and freezing
DMSO final concentration.
After a short centrifugation the
(1st emission filter) / 450-80 nm (2nd emission filter). The % inhibition at each test concentration was
sigmoidal four-parameter logistic fit equation. […]

[6] = geometric mean of at least three replicates, read-out: BCL6 TR-FRET IC50
[7] = geometric mean of at least three replicates, read-out: NanoBRET IC50
[8] = single replicates, Table S2, read-out: BCL6 NanoBRET IC50 individual replicates

Compound | BCL6 TR-FRET pIC50 mean (human BCL6 BTB domain) | IC90 (human BCL6 BTB domain) [nM] | IC50 (human BCL6 BTB domain; [6]) [nM] | IC50 (human BCL6 BTB domain; supplement, read-out: BCL6 TR-FRET IC50 Geometric Mean) [nM] | microsomal CLint at 0.5 h, 1 µM ([1]; female, CD1, mouse, liver microsomes, pH 7.4) [µL/min/mg] | chromatographic logD ([2]; pH 7.4, read-out: Measured logD7.4) | solubility kinetic at 20 h [3] [µM] | Papp A→B [4] [×10⁻⁶ cm/s] | efflux ratio [4] | IC90 ([5]; HEK-293T, Table S2) [nM] | decrease in cellular potency compared to CCT372064 ([5]; NanoBRET) [fold] | BCL6 NanoBRET pIC50 mean ([5]; Table S2) | IC50 [5, 7] [nM] | IC50 [5, 8] | IC50 ([5]; supplement, read-out: BCL6 NanoBRET IC50 Geometric Mean) [nM] | CLint H/M/R ([1]; one value given, mouse microsomal clearance per text) [μLmin^-1mg^-1] | Measured logD7.4 [2] | IC90 ([5]; Table S2) [nM]
Cn1c(=O)c2c(c3cc(Nc4ccnc(Cl)c4Cl)ccc31)N[C@@H](C1CC1)C(F)(F)CO2 [compound 15, (S)-2-Cyclopropyl-10-((2,3-dichloropyridin-4-yl)amino)-3,3-difluoro-7-methyl-1,2,3,4-tetrahydro-[1,4]oxazepino[2,3-c]quinolin-6(7H)-one] | 7.873 | 109 | 13 | 13.4 | 24 | 3.2 | 6 (≈ 2.8 µg/mL) | 9.1 | 2.9 | 796 | 5 | 7.1618 | 68 | 106 nM and 43.5 nM and 71 nM | 68.9 | – | – | –
(2S)-10-((2-(3-acetyl-3,8-diazabicyclo[3.2.1]octan-8-yl)-5-chloropyrimidin-4-yl)amino)-2-cyclopropyl-3,3-difluoro-7-methyl-1,2,3,4-tetrahydro-[1,4]oxazepino[2,3-c]quinolin-6(7H)-one [compound 7] | 8.728 | 13.7 | 1.9 | – | – | – | – | – | – | – | – | 7.3871 | 41 | 28.2 nM and 47.9 nM and 51.1 nM | – | 50 | 2.5 | 284
